Like-named read-outs stand apart in the source and are kept apart here.
Experiments:
[1] = target: FKBP (Homo sapiens, UniProt P62942); experiment: PPIase Inhibition Assay; format: biochemical
Procedure: 1) Inhibition of PPIase Activity
This assay follows in principle the procedure described in Kofron et al., 1991, Biochemistry 30:6127.
The three main reagents used are PPIase, a substrate for PPIase, and a selected inhibitor compound of the present invention. The basic principle behind this assay is the conversion of the cis isomer of the substrate to the trans form, which conversion is catalyzed by PPIase. Essentially, inhibition of this PPIase activity is measured for the selected compounds. A peptide chymotrypsin substrate containing a proline in the P2 position is only cleaved by chymotrypsin when the Phe-Pro bond is in the trans isomeric configuration. In the presence of excess chymotrypsin, all of the trans peptide isomers are cleaved within approximately five seconds, leaving only cis forms.
The cis peptide will spontaneously convert to the trans isomer at a slow rate. The cis to trans conversion is catalyzed by isomerases at a much faster rate than this spontaneous conversion. Proteins with PPIase activity are examples of such isomerases. After isomerization, the peptide is cleaved by chymotrypsin releasing p-nitroaniline which can be monitored at 390 nm. The rate of release is then calculated using a first order rate plus offset equation utilizing the ENZFITTER program (Leatherbarrow, BIOSOFT, Cambridge, United Kingdom).
In a plastic cuvette are added 950 ul of ice cold assay buffer (25 mM HEPES, pH 7.8, 100 mM NaCl), 10 uL of FKBP (2.5 uM in 10 mM Tris-Cl pH 7.5, 100 mM NaCl, 1 mM dithiothreitol), 25 ul of chymotrypsin (50 mg/ml in 1 mM HCl) and 10 ul of the test compound at various concentrations in dimethyl sulphoxide. The reaction is initiated by addition of 5 ul of substrate (Succinyl-Ala-Phe-Pro-Phe-para-nitroanilide, 5 mg/ml in 235 mM LiCl in trifluoroethanol).
The absorbance at 390 nm versus time is monitored for 90 sec using a Beckman DU70 spectrophotometer. The absorbance versus time data files are transferred to an IBM XT computer and the rate constants determined using the commercial enzfitter program. For each set of data, the uncatalyzed rate of conversion is measured and the uninhibited enzymatic rate determined. The data are expressed as % Activity remaining and are calculated as follows:
% Activity Remaining=(kobs -kuncat)/(kuninh
where kobs is the rate in the presence of a selected test compound, kuncat is the rate in the absence of enzyme, and kuninh is the rate in the presence of enzyme
Data was plotted as the velocity in the absence of the inhibitor (V-) divided by the velocity in the presence of inhibitor (V+) versus the inhibitor concentration. The IC50 can be determined following linear regression as the inhibitor concentration where

[2] = test system: human T-cells; experiment: Suppression of Human T-Cell Proliferation Assay (PHA-stimulated, [3H]-thymidine incorporation); format: cell-based; conditions: concentration inhibiting [3H]-thymidine incorporation of PHA-stimulated T-cells by 50%, 72 hours; TABLE 2; read-out: IC50
Excerpt: 2) Human T Lymphocyte Inhibition
Inhibition of mitogen-induced T-cell proliferation can be used to profile immunosuppressive activity of test compounds. In the description of the assay which follows, mitogen-induced T-cell activation was used to test the inhibitory potencies of select compounds of the present invention.
In an assay similar to that described by Bradley in Mishell et al. (Eds.), 1980, Selected Methods in Cellular Immunology, pp 156-161, W. H. Freeman & Co., San Fransisco, Calif., T-cells were stimulated by incubation with phytohemagglutinin (PHA) which binds to cell surface molecules, including the T-cell receptor. This stimulation results in proliferation which can be measured by incorporation of [^3 H]-thymidine into cellular DNA.
The immunosuppressive properties of the compounds of the present invention can be determined by adding various concentrations of the compounds to these cultures and measuring the effect on T-cell proliferation.
Suppression of Human T-Cell Proliferation Assay
Fresh LeukoPaks were obtained from the New York Blood Center, New York, N.Y. The cells, including erythrocytes and leukocytes, were diluted with Hank's Balanced Salt Solution (HBSS) (GIBCO, Grand Island, N.Y.) and layered over Lymphoprep (Nycomed Pharma AS, Oslo, Norway) in sterile 50 ml conical centrifuge tubes. Lymphocytes were isolated at the Hank's/Nycomed interface after centrifugation at 2000×g, 4° C. for 15 min. The lymphocytes were washed with Minimal Essential Medium (GIBCO) containing 2% fetal bovine serum (FBS) (Sigma Chemical Co., St. Louis, Mo.), 1% HEPES buffer (GIBCO) and 1% Penicillin-Stretomycin solution (GIBCO).
T-cells were further purified essentially by sheep erythrocyte (SRBC) rosetting as described by Morimoto et al., 1983, J. Immunol. 130:157. The isolated lymphocytes were adjusted to 2×10^7 cells/ml and 5 ml aliquots of the cell suspension were incubated for 10 minutes at room temperature with 5 ml of a 5% SRBC (Cappel, Organon Technika Corp., West Chester, Pa.) suspension. The cells were gently pelleted by centrifugation at 300 rpm for 10 minutes, followed by a 1 hour incubation at room temperature to allow rosette formation. The cells were gently resuspended,layered over Lymphoprep and centrifuged for 30 minutes at 500×g. The pellet, containing rosetted T-cells and SRBC was treated with ice cold buffered ammonium chloride (GIBCO) to lyse the erythrocytes. T-cells were washed twice with HBSS.
Purified T-cells were resuspended at 2×10^6 cells/ml in complete culture medium composed of RPMI-1640 (Whittaker Bioproducts, Walkerville, Md.) with 10% FBS (Sigma), 2 mM L-glutamine (GIBCO), 1% Penicillin-Streptomycin (GIBCO) and 15 mM HEPES (GIBCO). In 96-well plates (Becton Dickinson, Lincoln Park, N.J.), 0.1 ml aliquots of T-cell suspension were mixed with 0.05 ml of 40 μg/ml PHA-M (Sigma). The compounds of this invention were dissolved in dimethylsulfoxide at 10 mM and various dilutions in complete medium were added in duplicate wells (0.05 ml/well). The plates were incubated at 37° C. in a humidified atmosphere of 5% carbon dioxide and 95% air for 72 hours.
Proliferation was assessed by measurement of [^3 H]-thymidine incorporation. During the last 6 hours of incubation, the cells were pulse labelled with 1 μCi/well of [^3 H]-thymidine (New England Nuclear, Boston, Mass.). The cells were harvested onto glass fiber paper using a plate harvester and the radioactivity incorporated into cellular DNA corresponding to individual wells was measured by standard liquid scintillation counting methods.

[3] = concentration of inhibitor required for 50% inhibition of enzyme activity, FKBP, substrate Succinyl-Ala-Phe-Pro-Phe-para-nitroanilide, TABLE I

Chain of FKBP (P62942 whole entry): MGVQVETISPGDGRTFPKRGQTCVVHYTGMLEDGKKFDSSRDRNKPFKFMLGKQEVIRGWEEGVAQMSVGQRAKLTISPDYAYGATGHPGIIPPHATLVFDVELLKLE

Row | SMILES | IC50 [1, 3] [µM] | IC50 [2] [µM] | IC50 [1] [µM]
1 | CC[C@H](C)[C@H](NC(=O)[C@@H]1CCCCN1CC(=O)c1ccccc1)C(=O)NCc1ccccc1 [Example 17, L-Isoleucine, N-[1-(2-Phenyl-2-Oxoethyl)-L-Homoproline] Benzylamide] | < 50 | > 50 | 
2 | CC[C@H](C)[C@H](NC(=O)[C@@H]1CCCN1CC(=O)c1cc(OC)ccc1OC)C(=O)NCc1ccccc1 [Example 27, L-Isoleucine, N-[1-(2-(2,5-Dimethoxyphenyl)-2-Oxoethyl)-L-Prolyl] Benzylamide] | 12 | 20 | 
3 | CCOC(=O)C1CCCN(C(=O)CN2CCC[C@H]2C(=O)N[C@H](C(=O)NCc2ccccc2)[C@@H](C)CC)C1 (stereo partly drawn) [Example 72, L-Isoleucine, N-[1-[2-[N-(Piperidine-3-Carboxylic Acid Ethyl Ester)]-2-Oxoethyl]-L-Prolyl] Benzylamide] | < 5 |  | 
4 | CSCC[C@H](NC(=O)[C@@H]1CCCN1CC(=O)c1ccc(-c2ccccc2)cc1)C(=O)NCc1ccccc1 [Example 54, L-Methionine, N-[1-(2-(Biphenyl-4-yl)-2-Oxoethyl)-L-Prolyl] Benzylamide] |  |  | > 50
5 | O=C(CN1CCC[C@H]1C(=O)N[C@H](C(=O)NCc1ccccc1)c1ccccc1)c1ccccc1 [Example 18] | < 50 | 6 | 
6 | CC[C@H](C)[C@H](NC(=O)[C@@H]1CCCN1CC(=O)c1ccc(C)cc1)C(=O)NCc1ccccc1 [Example 14, L-Isoleucine, N-[1-(2-(4-Methylphenyl)-2-Oxoethyl)-L-Prolyl] Benzylamide] | < 50 | > 50 | 
7 | CC[C@H](C)[C@@H](C(=O)NCc1ccccc1)N(C)C(=O)[C@@H]1CCCN1CC(=O)c1ccccc1 [Example 16, L-Isoleucine, N-Methyl-N-[1-(2-Phenyl-2-Oxoethyl)-L-Prolyl] Benzylamide] | > 50 | > 50 | 
8 | C/C=C/C=C/COC(=O)CN1CCC[C@H]1C(=O)N[C@H](C(=O)NCc1ccccc1)[C@@H](C)CC (relative stereo) [Example 12, L-Isoleucine, N-[1-(2-(trans,trans-Hexa-2,4-dienyl-1-oxy)-2-Oxoethyl)-L-Prolyl] Benzylamide] | 5.8 | 35 | 
9 | CC[C@H](C)[C@H](NC(=O)[C@@H]1CCCN1CC(=O)c1cccc(OC)c1)C(=O)NCc1ccccc1 [Example 20, L-Isoleucine, N-[1-(2-(3-Methoxyphenyl)-2-Oxoethyl)-L-Prolyl] Benzylamide] | < 50 | < 11 | 
10 | CC[C@H](C)[C@H](NC(=O)[C@@H]1CCCN1CC(=O)OC)C(=O)NCc1ccccc1 [Example 6, L-Isoleucine, N-[1-(2-Methoxy-2-Oxoethyl)-L-Prolyl] Benzylamide] |  |  | < 50
11 | CC[C@H](C)[C@H](NC(=O)[C@@H]1CCCN1CC(=O)c1ccc(-c2ccccc2)cc1)C(=O)OCc1ccccc1 [Example 51, L-Isoleucine, N-[1-(2-(Biphenyl-4-yl)-2-Oxoethyl)-L-Prolyl] Benzyl Ester] |  |  | > 50
12 | CC[C@H](C)[C@H](NC(=O)[C@@H]1CCCN1CC(=O)c1ccc(-c2ccccc2)cc1)C(=O)N1CCc2ccccc2C1 [Example 50, L-Isoleucine, N-[1-(2-(Biphenyl-4-yl)-2-Oxoethyl)-L-Prolyl] 1,2,3,4-Tetrahydroisoquinolinamide] |  |  | 50
13 | CC[C@H](C)[C@H](NC(=O)[C@@H]1CCCN1CC(=O)OCc1ccccc1)C(=O)NCc1ccccc1 [Example 5, L-Isoleucine, N-[1-(2-Benzyloxy-2-Oxoethyl)-L-Prolyl] Benzylamide] | 2.2 |  | 

Second part, led by results:

Row | IC50 [1, 3] [µM] | SMILES | IC50 [2] [µM] | IC50 [1] [µM]
14 | < 5 | CC[C@H](C)[C@H](NC(=O)[C@@H]1CCCN1CC(=O)c1ccc(C)cc1C)C(=O)NCc1ccccc1 [Example 32, L-Isoleucine, N-[1-(2-(2,4-Dimethylphenyl)-2-Oxoethyl)-L-Prolyl] Benzylamide] | 41 | 
15 | < 50 | CC[C@H](C)[C@H](NC(=O)[C@@H]1CCCN1CC(=O)c1ccc(OC)cc1OC)C(=O)NCc1ccccc1 [Example 28, L-Isoleucine, N-[1-(2-(2,4-Dimethoxyphenyl)-2-Oxoethyl)-L-Prolyl] Benzylamide] |  | 
16 | > 5 | CC[C@H](C)[C@H](NC(=O)[C@@H]1CCCN1CC(=O)Nc1ccc(Cl)cc1Cl)C(=O)NCc1ccccc1 [Example 35, L-Isoleucine, N-[1-(2,4-Dichlorophenylcarbamoylmethyl)-L-Proline] Benzylamide] | 43 | 
17 | > 5 | CC[C@H](C)[C@H](NC(=O)[C@@H]1CCCN1CC(=O)NCc1ccccc1)C(=O)NCc1ccccc1 [Example 80, L-Isoleucine, N-[1-[2-(N-(Phenylmethylamino))-2-Oxoethyl]-L-Prolyl] Benzylamide] |  | 
18 | > 5 | CC[C@H](C)[C@H](NC(=O)[C@@H]1CCCN1CC(=O)NCC1CCCCC1)C(=O)NCc1ccccc1 [Example 81, L-Isoleucine, N-[1-[2-(N-(Cyclohexylmethylamino))-2-Oxoethyl]-L-Prolyl] Benzylamide] |  | 
19 | < 50 | CC[C@H](C)[C@H](NC(=O)[C@@H]1CCCN1CC(=O)c1ccccc1[N+](=O)[O-])C(=O)NCc1ccccc1 [Example 29, L-Isoleucine, N-[1-(2-(2-Nitrophenyl)-2-Oxoethyl)-L-Prolyl] Benzylamide] |  | 
20 | < 50 | CC[C@H](C)[C@H](NC(=O)[C@@H]1CCCN1CC(=O)c1ccc([N+](=O)[O-])cc1)C(=O)NCc1ccccc1 [Example 30, L-Isoleucine, N-[1-(2-(4-Nitrophenyl)-2-Oxoethyl)-L-Prolyl] Benzylamide] |  | 
21 | > 5 | CC[C@H](C)[C@H](NC(=O)[C@@H]1CCCN1CC(=O)NC1CCCC1)C(=O)NCc1ccccc1 [Example 79, L-Isoleucine, N-[1-[2-(N-Cyclopentylamino)-2-Oxoethyl]-L-Prolyl] Benzylamide] |  | 

Reference: patent US5686424A, “2-oxoethyl derivatives as immunosuppressants” (Miles Inc., priority 1995, dated 1997)
